From ChEMBL document CHEMBL5665443, “Enzyme Inhibitor Single Concentration assay results for EUbOPEN Chemogenomics Library” (2024)

Columns and labels:
[1] = molecular target: DNA-3-methyladenine glycosylase (Homo sapiens) (UniProt P29372); details: Compound Concentration 10.0 uM;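 note: enzyme assay where MPG cuts a quenched duplex DNA oligonucleotide probe, paired with APE1 for strand incision and turnover, read as fluorescence at 594 nm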
Description: Inhibition of MPG by quantifying inhibition of MPG-mediated cleavage and dissociation of quenched duplex DNA oligonucleotides, measured as fluorescence at 594 nm. To generate a functional strand incision and increase turn-over this assay is coupled to APE1.

[2] = molecular target: T1, Adenine DNA glycosylase (Homo sapiens) (UniProt Q9UIF7); details: Compound Concentration 10.0 uM;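 note: human MUTYH activity read as 594 nm fluorescence from cleavage and release of a quenched DNA duplex, coupled with APE1 for strand incision, lower signal meaning inhibition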
T1 sequence (whole entry): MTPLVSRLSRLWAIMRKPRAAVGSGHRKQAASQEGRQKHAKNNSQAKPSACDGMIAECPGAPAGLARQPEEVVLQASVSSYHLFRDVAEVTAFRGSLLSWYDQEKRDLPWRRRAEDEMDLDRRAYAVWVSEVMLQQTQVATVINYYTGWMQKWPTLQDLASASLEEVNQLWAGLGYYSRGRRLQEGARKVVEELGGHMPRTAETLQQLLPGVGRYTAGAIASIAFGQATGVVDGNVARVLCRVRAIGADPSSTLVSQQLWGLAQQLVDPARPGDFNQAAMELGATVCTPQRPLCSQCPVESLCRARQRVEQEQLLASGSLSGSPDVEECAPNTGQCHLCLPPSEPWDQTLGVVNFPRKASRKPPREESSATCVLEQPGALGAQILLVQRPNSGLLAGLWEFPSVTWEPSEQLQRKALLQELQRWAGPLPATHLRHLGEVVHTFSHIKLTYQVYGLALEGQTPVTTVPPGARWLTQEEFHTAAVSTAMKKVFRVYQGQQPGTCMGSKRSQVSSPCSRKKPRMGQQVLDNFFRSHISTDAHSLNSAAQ
Description: Inhibition of MUTYH by quantifying inhibition of MUTYH-mediated cleavage and dissociation of quenched duplex DNA oligonucleotides, measured as fluorescence at 594 nm. To generate a functional strand incision and increase turn-over this assay is coupled to APE1.

[3] = molecular target: Methyl-CpG-binding domain protein 4 (Homo sapiens) (UniProt O95243); details: Compound Concentration 10.0 uM;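 note: MBD4 activity read as fluorescence at 594 nm from cleavage and release of a quenched duplex DNA oligonucleotide, with APE1 coupled to incise the strand and raise turnover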
Sequence of Methyl-CpG-binding domain protein 4 (Homo sapiens) (O95243 whole entry, the tested form may be a part): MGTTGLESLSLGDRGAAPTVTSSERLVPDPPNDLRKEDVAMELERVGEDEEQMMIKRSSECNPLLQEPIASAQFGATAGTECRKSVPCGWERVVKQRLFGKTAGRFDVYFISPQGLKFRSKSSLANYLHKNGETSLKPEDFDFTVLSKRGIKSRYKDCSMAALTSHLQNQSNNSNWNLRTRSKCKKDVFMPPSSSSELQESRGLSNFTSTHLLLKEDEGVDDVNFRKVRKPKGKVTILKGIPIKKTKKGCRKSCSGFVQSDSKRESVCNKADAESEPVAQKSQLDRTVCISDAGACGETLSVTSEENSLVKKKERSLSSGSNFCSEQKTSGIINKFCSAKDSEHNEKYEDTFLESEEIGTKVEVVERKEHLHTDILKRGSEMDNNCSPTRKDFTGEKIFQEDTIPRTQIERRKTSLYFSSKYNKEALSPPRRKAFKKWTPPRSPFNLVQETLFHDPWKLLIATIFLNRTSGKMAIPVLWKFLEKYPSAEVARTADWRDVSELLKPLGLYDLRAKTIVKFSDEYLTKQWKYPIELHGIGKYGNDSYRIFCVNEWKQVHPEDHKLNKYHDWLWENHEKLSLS
Description: Inhibition of MBD4 by quantifying inhibition of MBD4-mediated cleavage and dissociation of quenched duplex DNA oligonucleotides, measured as fluorescence at 594 nm. To generate a functional strand incision and increase turn-over this assay is coupled to APE1.

[4] = molecular target: G/T mismatch-specific thymine DNA glycosylase (Homo sapiens) (UniProt Q13569); details: Compound Concentration 10.0 uM;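 note: human TDG cleavage of quenched duplex DNA oligonucleotides coupled to APE1, strand release read as fluorescence at 594 nm, inhibition of TDG activity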
Sequence of G/T mismatch-specific thymine DNA glycosylase (Homo sapiens) (Q13569 whole entry): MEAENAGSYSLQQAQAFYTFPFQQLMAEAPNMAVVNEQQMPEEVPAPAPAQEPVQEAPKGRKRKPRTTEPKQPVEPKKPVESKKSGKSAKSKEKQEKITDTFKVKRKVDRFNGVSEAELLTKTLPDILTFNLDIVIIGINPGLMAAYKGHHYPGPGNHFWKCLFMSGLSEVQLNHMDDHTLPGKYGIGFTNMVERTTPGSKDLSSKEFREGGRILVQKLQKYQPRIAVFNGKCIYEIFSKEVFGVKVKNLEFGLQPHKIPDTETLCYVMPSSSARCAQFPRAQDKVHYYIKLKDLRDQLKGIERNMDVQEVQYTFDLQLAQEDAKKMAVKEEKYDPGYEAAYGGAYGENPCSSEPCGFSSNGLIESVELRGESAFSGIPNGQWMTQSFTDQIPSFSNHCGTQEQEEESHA
Description: Inhibition of TDG by quantifying inhibition of TDG-mediated cleavage and dissociation of quenched duplex DNA oligonucleotides, measured as fluorescence at 594 nm. To generate a functional strand incision and increase turn-over this assay is coupled to APE1.

[5] = molecular target: T2, Endonuclease III-like protein 1 (Homo sapiens) (UniProt P78549); details: Compound Concentration 10.0 uM, Hit No;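 note: enzyme assay tracking NTHL1 cutting and release of a quenched double-stranded DNA oligo substrate, read as fluorescence at 594 nm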
T2 sequence (whole entry): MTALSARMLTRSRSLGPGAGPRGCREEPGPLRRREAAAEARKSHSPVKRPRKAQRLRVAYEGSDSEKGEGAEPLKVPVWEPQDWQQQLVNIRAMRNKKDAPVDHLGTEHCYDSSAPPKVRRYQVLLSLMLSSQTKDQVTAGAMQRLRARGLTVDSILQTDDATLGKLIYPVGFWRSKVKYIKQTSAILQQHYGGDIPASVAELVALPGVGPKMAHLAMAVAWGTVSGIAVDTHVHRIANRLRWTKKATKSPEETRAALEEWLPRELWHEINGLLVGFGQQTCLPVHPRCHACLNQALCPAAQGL
Description: Inhibition of NTHL1 by quantifying inhibition of NTHL1-mediated cleavage and dissociation of quenched duplex DNA oligonucleotides, measured as fluorescence at 594 nm.

[6] = molecular target: T3, Single-strand selective monofunctional uracil DNA glycosylase (Homo sapiens) (UniProt Q53HV7); details: Compound Concentration 10.0 uM, Hit No;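 note: enzymatic SMUG1 assay coupled with APE1, reading fluorescence at 594 nm released when a quenched double-stranded DNA oligonucleotide substrate is cleaved and separated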
T3 sequence (whole entry): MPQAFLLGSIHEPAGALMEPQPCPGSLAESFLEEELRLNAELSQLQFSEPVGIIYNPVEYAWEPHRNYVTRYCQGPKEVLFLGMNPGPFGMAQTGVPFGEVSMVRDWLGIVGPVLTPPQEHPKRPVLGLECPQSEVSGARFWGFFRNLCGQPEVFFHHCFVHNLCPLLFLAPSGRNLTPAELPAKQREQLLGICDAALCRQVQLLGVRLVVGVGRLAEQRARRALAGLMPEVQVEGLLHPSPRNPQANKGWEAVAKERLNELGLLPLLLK
Description: Inhibition of SMUG1 by quantifying inhibition of SMUG1-mediated cleavage and dissociation of quenched duplex DNA oligonucleotides, measured as fluorescence at 594 nm. To generate a functional strand incision and increase turn-over this assay is coupled to APE1.

[7] = molecular target: Uracil-DNA glycosylase (Homo sapiens) (UniProt P13051); details: Compound Concentration 10.0 uM, Hit No;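 note: UNG excision on a quenched double-stranded DNA oligo probe, with APE1 added for strand incision and turnover, read as fluorescence at 594 nm as strands separate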
Sequence of Uracil-DNA glycosylase (Homo sapiens) (P13051 whole entry): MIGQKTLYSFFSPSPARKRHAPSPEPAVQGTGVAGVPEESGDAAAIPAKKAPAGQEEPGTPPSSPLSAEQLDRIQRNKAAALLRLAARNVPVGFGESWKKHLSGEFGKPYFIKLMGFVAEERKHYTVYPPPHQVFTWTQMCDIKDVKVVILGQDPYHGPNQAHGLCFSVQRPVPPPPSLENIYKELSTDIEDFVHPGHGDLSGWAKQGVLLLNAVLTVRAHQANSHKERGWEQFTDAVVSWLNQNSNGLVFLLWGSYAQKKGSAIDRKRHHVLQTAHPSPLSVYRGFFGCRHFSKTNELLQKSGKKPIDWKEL
Description: Inhibition of UNG by quantifying inhibition of UNG-mediated cleavage and dissociation of quenched duplex DNA oligonucleotides, measured as fluorescence at 594 nm. To generate a functional strand incision and increase turn-over this assay is coupled to APE1.

[8] = molecular target: Endonuclease 8-like 1 (Homo sapiens) (UniProt Q96FI4); details: Compound Concentration 10.0 uM, Hit No;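 note: fluorescence at 594 nm from quenched duplex DNA oligonucleotides released by NEIL1 cleavage and strand separation, reported as reduction of this enzyme activity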
Sequence of Endonuclease 8-like 1 (Homo sapiens) (Q96FI4 whole entry): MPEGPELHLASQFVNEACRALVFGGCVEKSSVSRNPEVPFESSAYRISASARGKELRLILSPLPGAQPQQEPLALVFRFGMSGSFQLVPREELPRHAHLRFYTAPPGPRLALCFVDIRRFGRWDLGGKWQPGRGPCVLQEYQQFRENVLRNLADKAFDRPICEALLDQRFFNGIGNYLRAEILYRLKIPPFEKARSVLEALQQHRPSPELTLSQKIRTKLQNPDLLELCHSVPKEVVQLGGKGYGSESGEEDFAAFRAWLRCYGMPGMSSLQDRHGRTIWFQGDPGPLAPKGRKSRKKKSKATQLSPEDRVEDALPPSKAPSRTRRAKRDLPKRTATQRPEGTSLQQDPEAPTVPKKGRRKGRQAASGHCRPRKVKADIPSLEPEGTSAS
Description: Inhibition of NEIL1 by quantifying inhibition of NEIL1-mediated cleavage and dissociation of quenched duplex DNA oligonucleotides, measured as fluorescence at 594 nm.

[9] = molecular target: N-glycosylase/DNA lyase (Homo sapiens) (UniProt O15527); details: Compound Concentration 10.0 uM;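 note: OGG1 cleavage of a quenched duplex DNA oligonucleotide, coupled to APE1 for strand incision, read as fluorescence at 594 nm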
Sequence of N-glycosylase/DNA lyase (Homo sapiens) (O15527 whole entry): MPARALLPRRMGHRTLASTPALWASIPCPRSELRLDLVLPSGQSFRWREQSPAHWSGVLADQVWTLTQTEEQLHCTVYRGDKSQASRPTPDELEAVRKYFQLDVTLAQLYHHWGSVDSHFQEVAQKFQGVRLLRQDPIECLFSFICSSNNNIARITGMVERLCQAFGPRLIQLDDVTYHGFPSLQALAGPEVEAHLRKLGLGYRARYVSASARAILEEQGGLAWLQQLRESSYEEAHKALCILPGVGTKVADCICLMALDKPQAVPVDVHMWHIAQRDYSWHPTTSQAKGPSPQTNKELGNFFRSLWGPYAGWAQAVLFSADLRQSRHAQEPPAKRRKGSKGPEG
Description: Inhibition of OGG1 by quantifying inhibition of OGG1-mediated cleavage and dissociation of quenched duplex DNA oligonucleotides, measured as fluorescence at 594 nm. To generate a functional strand incision and increase turn-over this assay is coupled to APE1.

[10] = molecular target: T4, Endonuclease 8-like 2 (Homo sapiens) (UniProt Q969S2); details: Compound Concentration 10.0 uM, Hit No;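 note: fluorescence at 594 nm reports NEIL2 cutting and release of a quenched double-stranded DNA oligo substrate, reduced signal read as inhibition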
T4 sequence (whole entry): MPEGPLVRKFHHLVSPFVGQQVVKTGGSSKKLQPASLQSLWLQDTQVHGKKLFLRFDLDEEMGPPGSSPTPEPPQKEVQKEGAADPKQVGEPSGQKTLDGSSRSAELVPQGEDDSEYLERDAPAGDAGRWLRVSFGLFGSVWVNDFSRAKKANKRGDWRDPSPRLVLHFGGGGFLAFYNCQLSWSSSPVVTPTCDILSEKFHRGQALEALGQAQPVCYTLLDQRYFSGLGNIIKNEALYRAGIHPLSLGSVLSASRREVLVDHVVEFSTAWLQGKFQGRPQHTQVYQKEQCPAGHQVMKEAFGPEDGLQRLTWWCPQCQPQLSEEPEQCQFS
Description: Inhibition of NEIL2 by quantifying inhibition of NEIL2-mediated cleavage and dissociation of quenched duplex DNA oligonucleotides, measured as fluorescence at 594 nm.

Sequence of DNA-3-methyladenine glycosylase (Homo sapiens) (P29372 whole entry): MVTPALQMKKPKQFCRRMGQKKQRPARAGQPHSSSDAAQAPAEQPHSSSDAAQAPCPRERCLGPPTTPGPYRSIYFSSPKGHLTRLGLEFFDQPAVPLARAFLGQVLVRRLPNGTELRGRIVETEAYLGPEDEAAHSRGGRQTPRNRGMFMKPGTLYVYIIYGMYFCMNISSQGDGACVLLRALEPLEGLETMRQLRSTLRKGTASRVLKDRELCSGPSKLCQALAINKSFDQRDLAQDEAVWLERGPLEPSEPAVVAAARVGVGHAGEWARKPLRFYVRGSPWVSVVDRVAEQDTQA

Structure (SMILES)	inhibition ([1]; Hit No)	inhibition ([2]; Hit No)	inhibition ([3]; Hit No)	inhibition ([4]; Hit No)	inhibition [5]	inhibition [6]	inhibition [7]	inhibition [8]	inhibition ([9]; Hit No)	inhibition [10]	inhibition ([1]; Hit Yes)	inhibition ([2]; Hit Yes)	inhibition ([3]; Hit Yes)	inhibition ([4]; Hit Yes)	inhibition ([9]; Hit Yes)
COC1(C[S@@+]([O-])c2ccccc2)CCN(CCc2c[nH]c3ccc(F)cc23)CC1	-3.99%	-7.4%	2.25%	6.29%	17.1%	-8.49%	-4%	5.2%							
CCNC(=O)[C@H]1O[C@@H](n2cnc3c(N)ncnc32)[C@H](O)[C@@H]1O	-3.56%	-3.4%	-0.442%	-4.15%	17.9%	-5.33%	-2.94%	3.86%							
C[S+]([O-])c1ccc(-c2nc(-c3ccc(F)cc3)c(-c3ccncc3)[nH]2)cc1 (configuration not stated)	10.5%	13.8%	16.5%	17.7%	15.1%		-3.45%	-8.51%	6.37%	-0.483%					
O=C(Nc1ccc(Cl)cc1)N[C@@H](Cc1ccccc1)C(=O)N1CCCCC1	30.7%	13.5%	27.2%	22.9%	17.9%		-3.64%	0.898%	-1.34%	-3.15%					
O=C(O)CCCCCC[C@H]1C(=O)NC(=O)N1CCC(O)C1CCCCC1 (some centres not stated)	-5.01%	39.4%	9.44%	11%	23.7%		-5.39%	-4.58%	-6.34%	-1.37%					
CC(C)(O)c1ccc2c(c1)ncn2-c1cccc(-c2ccccc2C#N)c1	3.49%	-2.7%	26.4%	-5.39%	12.1%	1%	-7.68%	-1.62%							
c1ccc(Cn2c(N3CCNCC3)nc3ccccc32)cc1	2.45%	0.413%	-1.45%	-3.94%	25.3%		-7.26%	3.42%	-7.05%	-2.13%					
CC(C)(C)c1ccc(NC(=O)N2CCN(c3ncccc3Cl)CC2)cc1	9.36%	-0.729%	8.84%	11%	21.2%	-0.579%	-5.92%	-1.77%							
FC(F)(F)c1ccc(N2CCNCC2)nc1Cl	8.14%	-0.34%	12.7%	27.6%	11.3%		-2.44%	-3.1%	-4.95%	-1.62%					
Cc1ccccc1C#Cc1ccc(CCC(=O)O)cc1	10.7%	12.8%	11.2%	14.4%	6.35%		-2.61%	-4.44%	8.7%	1.69%					
Clc1ccc(C2CC3CCC2N3)cn1 (configuration not stated)	-6.44%	-3.17%	11.8%	20.8%	7.17%		-9.39%	-1.03%	-8.75%	-3.41%					
C[C@@H](Cn1c(=O)[nH]/c(=N\c2ccc(Oc3ccccn3)cc2)n(Cc2ccc(Cl)cc2)c1=O)C(=O)O	14.7%	14.4%	25.3%	23.6%	24.5%		-3.28%	5.49%	-4.95%	5.25%					
CCCN(CCc1cccs1)[C@H]1CCc2c(O)cccc2C1	14.7%	14.9%	27.8%	8.18%	18.7%		-4.64%	-8.88%	-7.03%	-1.88%					
CC(C)C[C@H](NC(=O)[C@H](CC(N)=O)NC(=O)[C@@H]1CCCN1C(=O)[C@@H](N)C(C)C)C(=O)N1CCC[C@H]1C(=O)N[C@@H](CCC(N)=O)C(=O)N[C@@H](CCCNC(=N)N)C(=O)N[C@@H](Cc1ccccc1)C(N)=O	2.54%	-3.17%	7.14%	4.58%	17.1%		-4.09%	5.49%	-4.66%	4.75%					
CC1(C)CC(=O)c2c(SCCO)sc(-c3nccs3)c2C1	8.86%	15.5%	23.5%	13.8%	28.6%		-4.5%	-2.21%	-7.89%	1.94%					
CCCCCCCCCCCCCCC[C@@H](O)[C@@H](N)COP(=O)(O)O	9.63%	-9.71%	-8.45%	3%	5.59%		-5.95%	6.76%	-0.598%	4.76%					
NCCCCN(Cc1nc2ccccc2[nH]1)[C@H]1CCCc2cccnc21	-6.17%	5.47%	-9.01%	0.598%	-0.258%		-4.22%	10.7%	-6.41%	6.78%					
CCCCCCNC(=O)Nc1ccc(S(=O)(=O)Nc2ccc(CCNC[C@H](O)COc3ccc(O)cc3)cc2)cc1					10.5%		5.25%	-4.58%	3.62%	-3.66%	105%	107%	102%	105%	
O=c1cc(-c2cc(F)c(Cl)nc2Cl)[nH]c2c(-c3ccccc3)c(C(F)(F)F)nn12	43.4%	63.1%	66.3%	54.8%	8%		1.49%	-6.07%		16%					60.4%
COc1cccc(OC)c1-c1cc(C(=O)NC2(C(=O)O)C3CC4CC(C3)CC2C4)nn1-c1ccnc2cc(Cl)ccc12 (configuration not stated)	18.6%	53.6%	44.5%	45.2%	24.6%		-7.21%	-4.95%	23.9%	-7.72%					
CCCCC(=O)N(Cc1ccc(-c2ccccc2C(=O)O)cc1)c1ccccc1	11.5%	18%	33.4%	23.9%	7.17%		-5.18%	1.79%	-7.96%	-3.15%					
Brc1c(NC2=NCCN2)ccc2nccnc12	-8.07%	-8.17%		1.79%	-4.67%	-5.99%		-5.69%		6.5%			140%		
CCCN(CCC)[C@@H]1CCc2ccc3[nH]c(C#N)cc3c2C1	27.5%	46.8%	35.8%	30%	-5.21%		-7.96%	-4.73%	5.74%	9.08%					
